According to patent US8236761B2, “C-Met receptor regulation by angiotensin IV (AT4) receptor ligands” (Washington State University Research Foundation, priority 2006, dated 2012):
Non-standard residues stand in square brackets, D forms with d. No end group written: not given here. Nle = CCCC[C@H](N)C(=O)O

Tests used:
[1] = test system: MDCK cells; experiment: HGF stimulated MDCK cell collagen I invasion (transwell chamber); type: cell-based, canine; settings: HGF 20 ng/ml, twelve hours
Experimental: FIG. 9A: Modulation of HGF stimulated MDCK cell collagen I invasion in the Costar transwell chamber invasion assay. 50 μl of collagen I was added to the top chamber of the transwell chamber (BD Biosciences) and gelled by adjusting it to a physiological pH with a 1:1:1 mixture of 10× Modified Eagle's Medium, 1 M sodium bicarbonate, and 0.1 M sodium hydroxide for 30 minutes at 37° C. 50,000 MDCK cells in 1% FBS DMEM were seeded into the inside of the top chamber over the gelled collagen I solution and allowed to attach for two hours at 37° C. After the cells had attached to the collagen 1, the indicated concentrations of Norleual were added to the top chamber. […] The cells that had invaded the collagen and migrated to the underside of the membrane were counted in five random fields at 40× on a light microscope. The effect of treatment was determined using the one-way ANOVA with tukey's post-hoc analysis (Prism statistical analysis software). * indicates p<0.01 vs. HGF alone treatment. […] The cells that had invaded the collagen and migrated to the underside of the membrane were counted in five random fields at 40× on a light microscope. The effect of treatment was determined using the one-way ANOVA with tukey's post-hoc analysis (Prism statistical analysis software). * indicates p<0.05 vs. HGF treatment. […]

[2] = test system: B16-F10 melanoma cells; experiment: In vivo pulmonary B16-F10 melanoma metastasis model; set-up: species or system C57BL/6 mice; settings: tail vein inoculation, IP 50 μg/kg/day, fourteen days, melanin absorbance
Experimental: (FIG. 13A) C57BL/6 mice were inoculated subcutaneously with B16-F10 cells. Control or Norleual-containing slow release Elvax pellets were implanted inter-muscularly. Tumors were measured with digital calipers and tumor volumes were calculated (n=6), error bars indicate ±SD. (FIG. 13B) 400,000 B16-F10 cells, treated in suspension with either Norleual at 10^−11 M or PBS as a vehicle control, were injected into the tail vein of C57BL/6 mice. Mice received IP injections of Norleual (50 μg/kg/day) or PBS vehicle control. After fourteen days, lungs were removed and the absorbance of melanin was used to quantify metastasis; bars show (left to right) graft recipients treated with vehicle only, Norelual treated graft recipients, and ungrafted age-matched control. Error bars indicate±SEM, with n=5 and *p<0.05. (FIG. 13C) Photo of representative lungs from vehicle-only treated (controls, “Norleal −”) and Norleual treated (“Norleual +”) grafted mice.
In vivo metastasis. Six to eight month old C57BL/6 mice were injected with 400 000 B16-F10 cells in 200 μl PBS by tail vein injection. Two to three weeks later, mice were anesthetized and lungs were perfused with PBS and removed. […] The supernate was transferred to a 96 well plate and melanin absorbance at 410 nm was measured using a plate reader (Biotek Synergy2, Winooski, Vt., USA). […]

[3] = target: c-Met (Homo sapiens, UniProt P08581); experiment: Tyrosine kinase receptor protein array in HUVECs; type: cell-based; set-up: endogenous in cells; host or cells: HUVEC; settings: HUVECs treated for 5 minutes
Chain of c-Met (P08581 25-1390): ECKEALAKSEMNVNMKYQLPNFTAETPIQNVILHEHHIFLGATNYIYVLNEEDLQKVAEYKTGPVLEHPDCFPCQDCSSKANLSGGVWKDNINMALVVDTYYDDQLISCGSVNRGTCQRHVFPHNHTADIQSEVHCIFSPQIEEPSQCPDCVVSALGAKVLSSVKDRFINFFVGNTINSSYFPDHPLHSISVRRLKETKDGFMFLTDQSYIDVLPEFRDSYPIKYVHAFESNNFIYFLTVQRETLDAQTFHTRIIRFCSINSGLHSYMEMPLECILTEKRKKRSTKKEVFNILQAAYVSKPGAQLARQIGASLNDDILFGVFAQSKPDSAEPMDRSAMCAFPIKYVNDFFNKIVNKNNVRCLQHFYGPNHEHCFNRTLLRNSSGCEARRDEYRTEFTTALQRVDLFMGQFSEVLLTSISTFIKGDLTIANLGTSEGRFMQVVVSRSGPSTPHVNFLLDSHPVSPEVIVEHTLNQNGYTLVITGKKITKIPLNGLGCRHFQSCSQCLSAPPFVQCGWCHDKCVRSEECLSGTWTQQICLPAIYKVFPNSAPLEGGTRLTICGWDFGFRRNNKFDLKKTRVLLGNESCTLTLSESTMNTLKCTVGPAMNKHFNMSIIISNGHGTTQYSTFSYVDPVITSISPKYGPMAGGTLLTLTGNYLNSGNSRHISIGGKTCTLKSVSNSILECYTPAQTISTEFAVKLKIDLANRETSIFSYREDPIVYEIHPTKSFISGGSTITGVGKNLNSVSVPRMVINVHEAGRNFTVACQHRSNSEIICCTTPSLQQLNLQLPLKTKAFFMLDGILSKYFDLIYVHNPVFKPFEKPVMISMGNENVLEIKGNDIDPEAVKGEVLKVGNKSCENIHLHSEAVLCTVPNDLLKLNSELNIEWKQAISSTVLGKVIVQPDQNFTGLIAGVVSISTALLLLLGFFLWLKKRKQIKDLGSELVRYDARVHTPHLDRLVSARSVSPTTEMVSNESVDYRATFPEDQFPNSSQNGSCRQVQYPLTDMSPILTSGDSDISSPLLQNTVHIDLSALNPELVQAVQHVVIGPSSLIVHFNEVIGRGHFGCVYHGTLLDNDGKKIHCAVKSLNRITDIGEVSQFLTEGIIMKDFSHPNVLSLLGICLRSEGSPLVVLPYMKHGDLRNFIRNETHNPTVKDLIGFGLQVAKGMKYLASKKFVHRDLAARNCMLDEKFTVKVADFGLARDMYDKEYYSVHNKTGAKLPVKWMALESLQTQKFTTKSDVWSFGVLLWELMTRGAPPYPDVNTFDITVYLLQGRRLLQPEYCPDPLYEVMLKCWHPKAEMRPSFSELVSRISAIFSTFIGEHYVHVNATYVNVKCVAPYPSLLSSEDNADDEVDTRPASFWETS
Experimental: Screening of a ligand for its ability to inhibit c-Met receptor phosphorylation was tested by tyrosine kinase receptor protein array. Briefly, human umbilical vein endothelial cells (HUVECs) grown to confluence were treated for 5 minutes with COMPOUND 2 (SEQ ID NO:43). Cells were then lysed and total protein collected.

Substance: Nle-Tyr-Leu-ψ-His-Pro-Phe ([Nle]YLHPF; also: reduced peptide bond psi(CH2NH2) between Leu and His) [Norleual]
- c-Met mediated collagen I invasion by MDCK cells [1]: inhibition
- c-Met mediated collagen I invasion by MDCK cells ([1]; listed as Compound 2): inhibited
- B16-F10 lung metastasis [2]: dramatically inhibited
- c-Met phosphorylation in receptor protein array [3]: inhibited
